Results reported in US20230399287A1, “NOVEL COMPOUNDS” (Sitryx Therapeutics Limited, priority 2020, published 2023).
Where a name gives a salt, the structure may show the parent alone.

What was measured:
IL-1β = test: THP-1 AlphaLISA IL-1β cytokine assay; assay type: cell-based; conditions: LPS 24 hr then Nigericin 1 hour
Procedure: (§1) Measuring Inhibitory Effects on IL-1V and IL-6 Cytokine Output from THP-1s
(§2) The cytokine inhibition profiles of compounds of formula (I) were determined in a differentiated THP-1 cell assay. All assays were performed in RPMI-1640 growth medium (Gibco), supplemented with 10% fetal bovine serum (FBS; Gibco), 1% penicillin-streptomycin and 1% sodium pyruvate unless specified otherwise. The IL-1β and IL-6 cytokine inhibition assays were run in a background of differentiated THP-1 cells as described below. All reagents described were from Sigma-Aldrich unless specified otherwise. Compounds were prepared as 10 mM DMSO stocks.
(§3) THP-1 cells were expanded as a suspension up to 80% confluence in appropriate growth medium. Cells were harvested, suspended, and treated with an appropriate concentration of phorbol 12-myristate 13-acetate (PMA) over a 72 hr period (37° C./5% CO2).
(§4) Following 72 hrs of THP-1 cell incubation, cellular medium was removed and replaced with fresh growth media containing 1% of FBS. Working concentrations of compounds were prepared separately in 10% FBS treated growth medium and pre-incubated with the cells for 30 minutes (37° C./5% CO2). Following the 30 minute compound pre-incubation, THP-1s were treated with an appropriate concentration of LPS and the THP-1s were subsequently incubated for a 24 hr period (37° C./5% CO2). An appropriate final concentration of Nigericin was then dispensed into the THP-1 plates and incubated for 1 hour (37° C./5% CO2) before THP-1 supernatants were harvested and collected in separate polypropylene 96-well holding plates.
(§5) Reagents from each of the IL-1β and IL-6 commercial kits (Perkin Elmer) were prepared and run according to the manufacturer's instructions. Subsequently, fluorescence signal detection in a microplate reader was measured (EnVision® Multilabel Reader, Perkin Elmer).
(§6) Percentage inhibition was calculated per cytokine by normalising the sample data to the high and low controls used within each plate (+/−LPS respectively). Percentage inhibition was then plotted against compound concentration and the 50% inhibitory concentration ([…]) was determined from the resultant concentration-response curve.

IL-6 = test: THP-1 AlphaLISA IL-6 cytokine assay; assay type: cell-based; conditions: LPS 24 hr then Nigericin 1 hour
Procedure: as §1, §2, §3, §4, §5, §6

NRF2 = NRF2 +/- GSH activation assay (DiscoverX PathHunter NRF2 translocation kit); assay type: cell-based; conditions: for EC50: U2OS PathHunter cells; for NRF2 activation Emax / Emax: normalised to dimethyl fumarate high control
hepatocytes [1] = test: Hepatocyte stability assay (human); assay type: in vitro ADME; conditions: 10 μM compound, 60 min
Text: (§7) Defrosted cryo-preserved hepatocytes (viability>70%) were used to determine the metabolic stability of a compound via calculation of intrinsic clearance (Clint; a measure of the removal of a compound from the liver in the absence of blood flow and cell binding). Clearance data are particularly important for in vitro work as they can be used in combination with in vivo data to predict the half-life and oral bioavailability of a drug.
(§8) The metabolic stability in hepatocytes assay involved a time-dependent reaction using both positive and negative controls. The cells must be pre-incubated at 37° C. then spiked with test compound (and positive control); samples taken at pre-determined time intervals were analysed to monitor the change in concentration of the initial drug compound over 60 minutes. A buffer incubation reaction (with no hepatocytes present) acted as a negative control and two cocktail solutions, containing compounds with known high and low clearance values (verapamil/7-hydroxycoumarin and propranolol/diltiazem), acted as positive controls. • 1. The assay was run with a cell concentration of 0.5×10^6 cells/mL in Leibovitz buffer. • 2. All compounds and controls were run in duplicate. • 3. Compound concentration was 10 μM. • 4. All compounds and controls were incubated with both cells and buffer to show turnover is due to hepatic metabolism. • 5. All wells on the incubation plate had 326.7 μL of either cells or buffer added. • 6. Prior to assay, cell and buffer-only incubation plates were preincubated for 10 mins at 37° C. • 7. The assay was initiated by adding compounds, 3.3 μL of 1 mM in 10% DMSO-90% Buffer; final DMSO concentration is 0.1%. • 8. Samples were taken at regular timepoints (0, 5, 10, 20, 40, 60 min) until 60 mins. • 9. Sample volume was 40 μL and added to 160 μL of crash solvent (acetonitrile with internal standard) and stored on ice. • 10. At the end of the assay, the crash plates were centrifuged at 3500 rpm for 20 mins at 4° C. • 11. 80 μL of clear supernatant was removed and mixed with 80 μL of deionised water before being analysed by LC-MS/MS.
(§9) Raw LC-MS/MS data were exported to, and analysed in, Microsoft Excel for determination of intrinsic clearance. The percentage remaining of a compound was monitored using the peak area of the initial concentration as 100%. Intrinsic clearance and half-life values were calculated using a graph of the natural log of percentage remaining versus the time of reaction in minutes. Half-life (min) and intrinsic clearance (Clint in μL min^−1 10^−6 cells) values were calculated using the gradient of the graph (the elimination rate constant, k) and Equations 1 and 2.

hepatocytes [2] = test: Hepatocyte stability assay (mouse); assay type: in vitro ADME; conditions: 10 μM compound, 60 min
Text: as §7, §8, §9

[3] = Hepatocyte stability assay (mouse); assay type: in vitro ADME; conditions: mouse, cryopreserved hepatocytes, 10 μM compound, 60 min, read-out: T½
Text: as §7, §8, §9

[4] = Homo sapiens, THP-1, differentiated THP-1 cells

Row | SMILES | IC50 (IL-1β; [4]) [µM] | IC50 (IL-6; [4]) [µM] | further results
1 | C=C(CC(=O)OC1(c2ccc(C(F)(F)F)cc2)CC(C(F)(F)F)C1)C(=O)O (single isomer, unassigned) [Example 43, 2-methylene-4-oxo-4-(3-(trifluoromethyl)-1-(4-(trifluoromethyl)phenyl)cyclobutoxy)butanoic acid] | 83.5 | > 100 | 
2 | C=C(CC(=O)OCCCCCCCC)C(=O)O [4-octyl itaconate, reference compound] |  |  | IC50 (IL-1β; differentiated THP-1 cells): 38.3 µM; IC50 (IL-6; differentiated THP-1 cells): 20.3 µM; EC50 (NRF2; +GSH): 28.9 µM; NRF2 activation Emax (NRF2; +GSH): 148%; EC50 (NRF2; −GSH): 22.1 µM; NRF2 activation Emax (NRF2; −GSH): 165%; Clint (hepatocytes [1]): 401 μL min^−1 10^−6 cells; T½ (hepatocytes [1]): 4 min; Clint (hepatocytes [2]): 351 μL min^−1 10^−6 cells; T½ (hepatocytes [2]): 4 min
3 | C=C(CC(=O)OC1(c2ccc(C)c(Cl)c2)CCC1)C(=O)O [Example 14, 4-(1-(3-chloro-4-methylphenyl)cyclobutoxy)-2-methylene-4-oxobutanoic acid] | 24.5 | > 100 | 
4 | C=C(CC(=O)OC)C(=O)OC [dimethyl itaconate, reference compound] | > 100 | 100 | Emax (NRF2; +GSH): 77%; Emax (NRF2; −GSH): 137%
5 | C=C(CC(=O)O[C@@H](c1ccc(C(F)(F)F)cc1)C(F)(F)F)C(=O)O [Example 33, (S)-2-methylene-4-oxo-4-(2,2,2-trifluoro-1-(4-(trifluoromethyl)phenyl)ethoxy)butanoic acid] | > 56.2 | > 63.1 | 
6 | C=C(CC(=O)OC1(c2ccc(-c3ccc(F)cc3)cc2)CCC1)C(=O)O [Example 16, 4-(1-(4′-fluoro-[1,1′-biphenyl]-4-yl)cyclobutoxy)-2-methylene-4-oxobutanoic acid] | > 100 | 21.5 | 
7 | C=C(CC(=O)OC1(c2ccc(C(F)(F)F)cc2)CN(C)C1)C(=O)O [Example 48, 4-((1-methyl-3-(4-(trifluoromethyl)phenyl)azetidin-3-yl)oxy)-2-methylene-4-oxobutanoic acid] | 58.4 | > 31.6 | 
8 | C=C(CC(=O)OC1(c2ccc3cc(Br)ccc3c2)CCC1)C(=O)O [Example 54, 4-(1-(6-bromonaphthalen-2-yl)cyclobutoxy)-2-methylene-4-oxobutanoic acid] | > 100 | 18.1 | 
9 | C=C(CC(=O)OC1(c2cnc(C(F)(F)F)cn2)CCC1)C(=O)O [Example 63, 2-methylene-4-oxo-4-(1-(5-(trifluoromethyl)pyrazin-2-yl)cyclobutoxy)butanoic acid] | 50.9 | > 31.6 | 
10 | COC(=O)/C=C/C(=O)OC [dimethyl fumarate, reference compound] |  | 9.3 | IC50 (IL-1β; differentiated THP-1 cells): 14.4 µM; Emax (NRF2; +GSH): 19%; EC50 (NRF2; Homo sapiens, U2OS, +GSH): > 100 µM; EC50 (NRF2; Homo sapiens, U2OS, −GSH): 6 µM; Emax (NRF2; −GSH): 100%
11 | C#CC(OC(=O)CC(=C)C(=O)O)c1ccc(C(F)(F)F)cc1 (single isomer, unassigned) [Example 38, 2-methylene-4-oxo-4-((1-(4-(trifluoromethyl)phenyl)prop-2-yn-1-yl)oxy)butanoic acid] |  |  | IC50 (IL-1β; differentiated THP-1 cells): 9.4 µM; IC50 (IL-6; differentiated THP-1 cells): > 100 µM; Clint (hepatocytes [1]): 7 μL min^−1 10^−6 cells; T½ (hepatocytes [1]): 183 min; Clint (hepatocytes [2]): 13 μL min^−1 10^−6 cells; T½ (hepatocytes [2]): 163 min
12 | C#CC(OC(=O)CC(=C)C(=O)O)c1ccc(C(F)(F)F)cc1 (single isomer, unassigned) [Example 37, 2-methylene-4-oxo-4-((1-(4-(trifluoromethyl)phenyl)prop-2-yn-1-yl)oxy)butanoic acid] | 14.5 |  | IC50 (IL-6; differentiated THP-1 cells): > 31.6 µM; Clint (hepatocytes [1]): <3 μL min^−1 10^−6 cells; T½ (hepatocytes [1]): >460 min; Clint (hepatocytes [2]): 34 μL min^−1 10^−6 cells; T½ (hepatocytes [2]): 48 min
13 | C=C(CC(=O)OC1(c2ccc(C(F)(F)c3ccccc3)cc2)CCC1)C(=O)O [Example 28, 4-(1-(4-(difluoro(phenyl)methyl)phenyl)cyclobutoxy)-2-methylene-4-oxobutanoic acid] | > 31.6 | 19.6 | 
14 | C=C(CC(=O)OC1(c2ccc(C(F)(F)F)cc2Cl)CCC1)C(=O)O [Example 6, 4-(1-(2-chloro-4-(trifluoromethyl)phenyl)cyclobutoxy)-2-methylene-4-oxobutanoic acid] | 45.4 | > 100 | 
15 | C=C(CC(=O)O[C@H](C)c1ccc(C(F)(F)F)cc1)C(=O)O [Example 3, (R)-2-methylene-4-oxo-4-(1-(4-(trifluoromethyl)phenyl)ethoxy)butanoic acid] | 33.6 | > 56.2 | 
16 | C=C(CC(=O)OCc1ccc(C(F)(F)F)cn1)C(=O)O [Example 56, 2-methylene-4-oxo-4-((5-(trifluoromethyl)pyridin-2-yl)methoxy)butanoic acid] | 46.2 | > 100 | 
17 | C=C(CC(=O)OC1(c2cc(F)c(C(F)(F)F)c(F)c2)CCC1)C(=O)O [Example 53, 4-(1-(3,5-difluoro-4-(trifluoromethyl)phenyl)cyclobutoxy)-2-methylene-4-oxobutanoic acid] | 29.7 | > 100 | 
18 | C=C(CC(=O)OC1(c2ccc(OC(F)(F)F)cc2)CCC1)C(=O)O [Example 15, 2-methylene-4-oxo-4-(1-(4-(trifluoromethoxy)phenyl)cyclobutoxy)butanoic acid] | 15.9 | > 100 | 
19 | C=C(CC(=O)OCc1ccc(C(F)(F)F)c(F)c1)C(=O)O [Example 55, 4-((3-fluoro-4-(trifluoromethyl)benzyl)oxy)-2-methylene-4-oxobutanoic acid] | 19.5 | > 100 | half-life at 10 μM [3]: 55 min; Clint (hepatocytes [2]): 29 μL min^−1 10^−6 cells
20 | C=C(CC(=O)OC1(C#Cc2ccc(C(F)(F)F)cc2)CCC1)C(=O)O [Example 60, 2-methylene-4-oxo-4-(1-((4-(trifluoromethyl)phenyl)ethynyl)cyclobutoxy)butanoic acid] | > 100 | 34.1 | 
21 | C=C(CC(=O)OC(CC)c1ccc(C(F)(F)F)cc1)C(=O)O (stereo not shown) [Example 10, 2-methylene-4-oxo-4-(1-(4-(trifluoromethyl)phenyl)propoxy)butanoic acid] | 5.8 | > 100 | Emax (NRF2; +GSH): 13%; EC50 (NRF2; Homo sapiens, U2OS, +GSH): > 100 µM; EC50 (NRF2; Homo sapiens, U2OS, −GSH): > 100 µM; Emax (NRF2; −GSH): 0%
